Measurements: US20050255538A1, “Methods for screening for AcrAB efflux pump inhibitors” (priority 2002, published 2005)

Tested on: E. coli ΔemrE mutants
Assay: Antimicrobial susceptibility assays of efflux pump deletion mutants
Format: cell-based, Escherichia coli
Settings: ΔemrE mutants in ΔacrAB ΔacrEF background vs parent
Experimental: The PCR mixtures contained 50 ng of E. coli chromosomal DNA, 40 pmol of each primer, 0.2 mM (each) deoxynucleoside triphosphate, 2 mM MgSO4 and 10% (vol/vol) dimethylsufoxide in 1× thermo reaction buffer (New England Biolabs, Mississauga, Ontario, Canada) and were heated for 5 min at 94° C. before the addition of 2 U of Vent DNA polymerase (New England Biolabs) per reaction. The reaction was then processed for 30 cycles of 40 sec: at 94° C., 40 sec at 56° C. and 40 sec at 72° C. before finishing with 10 min at 72° C. The PCR products to be used in each deletion were purified using a Qiaquick™ PCR purification kit (Qiagen Inc.), digested with BamHI and EcoRI or EcoRI and Sail as appropriate, and cloned into EcoRI-SalI-restricted pBluescript II SK(+) via a three-piece ligation. The resultant vectors, pXZL967 and pXZL983, carried deletions in emrE and emrD respectively, as confirmed by restriction analysis and nucleotide sequencing. Digestion of plasmids pXZL967 and pXZL983, with BamHI and SalI released fragments carrying the PCR-generated deletions of emrE (246 bp in-frame deletion), and emrD (1101 bp in-frame deletion), respectively, which were then cloned into BamHI-SalI-restricted pK03, yielding pXZL975, pXZL987, and pXZL1024 (selected on chloramphenicol (30 μg/ml)-containing LB agar at 30° C.). […]

Structure (SMILES): CC[n+]1c(-c2ccccc2)c2cc(N)ccc2c2ccc(N)cc21 [ethidium bromide]
- fold increase in MIC values (more susceptible): 32 fold
